Laboratory results taken from patent US20100179153A1, “Bicyclic S1P Receptor Modulators” (priority 2007, published 2010).

Legend:
Format in all cases: biochemical
human S1P5 receptor = target: T1, human S1P5 receptor (Homo sapiens, UniProt Q9H228); test: 35S-GTPγS binding assay (SPA), S1P5; settings: membrane protein from transfected CHO cells; for EC50: read-out: EC50 for receptor subtype S1P5
T1 construct: expressed in transfected cells; host or cells: CHO-K1 (ATCC CCL 61); RH7777 may also be used
Procedure: (§1) Test 1: ^355-GTPγS Binding Assay
(§2) The S1P receptor modulating properties of an agent of the invention are tested on the human S1P1, S1P2, S1P3, S1P4 and S1P5, respectively, receptor subtypes. The functional receptor activation is assessed by quantifying the compound-induced ^35S-GTPγS binding to membrane protein prepared from transfected heterologous cells stably expressing the appropriate S1P receptor subtype. CHO cells (CHO-K1, Chinese hamster, ATCC no. CCL 61) are used [RH7777 cells (rat Morris hepatoma, ATCC no. CRL 1601) may also be used]. The membrane protein is prepared from wild-type cells and from different cell clones expressing the appropriate S1P receptor subtype. The assay technology used is SPA (scintillation proximity based assay). A DMSO solution of the test compound is serially diluted and added to SPA-bead (Amersham-Pharmacia) immobilised S1P receptor subtype expressing membrane protein (1 to 20 μg/well) in the presence of 50 mM HEPES, 100 mM NaCl, 10 mM MgCl2, 10 μM GDP, 0.1% fat free BSA and 0.2 nM ^35S-GTPγS (1200 Ci/mmol) (pH 7.4). After incubation in 96 well microtiter plates at room temperature for 120 minutes, the unbound ^35S-GTPγS is separated by centrifugation. The luminescence of SPA beads triggered by membrane bound ^35S-GTPγS is quantified with a TOPcount plate reader (Packard). To evaluate the S1P receptor modulation, the stimulation (in %) compared to the baseline is calculated as the binding in the presence of the compound divided by the binding in the absence of a ligand, multiplied by 100. Dose response curves are plotted using a non-linear regression curve fitting program, and the EC50 is defined as the concentration of the compound required to give 50% of its maximum stimulation. Preferably, the EC50 value of an agent of the invention in this test is 10′000 nM or less. The selectivity of the compound towards the S1P receptor subtypes is determined by measuring for each of the different S1P receptor subtypes the level of ^35S-GTPγS binding in the presence of the compound using each of the different membrane proteins.

human S1P1 receptor = target: T2, human S1P1 receptor (Homo sapiens, UniProt P21453); test: 35S-GTPγS binding assay (SPA), S1P1; settings: membrane protein from transfected CHO cells
T2 construct: expressed in transfected cells; host or cells: CHO-K1 (ATCC CCL 61); RH7777 may also be used
Procedure: as §1
as §2, with “A DMSO solution of the test compound is serially diluted and added to SPA-bead (Amersham-Pharmacia) immobilised S1P receptor subtype expressing membrane protein (1 to 20 μg/well) in the presence of 50 mM HEPES, 100 mM NaCl, 10 mM MgCl2, 10 μM GDP, 0.1% fat free BSA and 0.2 nM ^35S-GTPγS (1200 Ci/mmol) (pH 7.4). After incubation in 96 well microtiter plates at room temperature for 120 minutes, the unbound ^35S-GTPγS is separated by centrifugation.” left out, “Dose response curves are plotted using a non-linear regression curve fitting program, and the EC50 is defined as the concentration of the compound required to give 50% of its maximum stimulation. Preferably, the EC50 value of an agent of the invention in this test is 10′000 nM or less.” left out

human S1P4 receptor = target: T3, human S1P4 receptor (Homo sapiens, UniProt O95977); test: 35S-GTPγS binding assay (SPA), S1P4; settings: membrane protein from transfected CHO cells
T3 construct: expressed in transfected cells; host or cells: CHO-K1 (ATCC CCL 61); RH7777 may also be used
T3 sequence (O95977 1-384): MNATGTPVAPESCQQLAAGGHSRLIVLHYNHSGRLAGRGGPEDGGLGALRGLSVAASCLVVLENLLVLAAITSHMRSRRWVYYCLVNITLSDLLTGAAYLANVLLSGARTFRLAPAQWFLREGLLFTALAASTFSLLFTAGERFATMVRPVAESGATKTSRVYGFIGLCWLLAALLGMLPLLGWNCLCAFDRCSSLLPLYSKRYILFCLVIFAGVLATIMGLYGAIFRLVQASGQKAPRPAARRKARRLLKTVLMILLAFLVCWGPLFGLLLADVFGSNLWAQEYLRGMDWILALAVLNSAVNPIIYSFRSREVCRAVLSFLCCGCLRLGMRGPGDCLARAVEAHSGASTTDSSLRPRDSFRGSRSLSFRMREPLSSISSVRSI
Procedure: as §1
as §2, with “A DMSO solution of the test compound is serially diluted and added to SPA-bead (Amersham-Pharmacia) immobilised S1P receptor subtype expressing membrane protein (1 to 20 μg/well) in the presence of 50 mM HEPES, 100 mM NaCl, 10 mM MgCl2, 10 μM GDP, 0.1% fat free BSA and 0.2 nM ^35S-GTPγS (1200 Ci/mmol) (pH 7.4). After incubation in 96 well microtiter plates at room temperature for 120 minutes, the unbound ^35S-GTPγS is separated by centrifugation.” left out, “Dose response curves are plotted using a non-linear regression curve fitting program, and the EC50 is defined as the concentration of the compound required to give 50% of its maximum stimulation. Preferably, the EC50 value of an agent of the invention in this test is 10′000 nM or less.” left out

T1 sequence (Q9H228 whole entry): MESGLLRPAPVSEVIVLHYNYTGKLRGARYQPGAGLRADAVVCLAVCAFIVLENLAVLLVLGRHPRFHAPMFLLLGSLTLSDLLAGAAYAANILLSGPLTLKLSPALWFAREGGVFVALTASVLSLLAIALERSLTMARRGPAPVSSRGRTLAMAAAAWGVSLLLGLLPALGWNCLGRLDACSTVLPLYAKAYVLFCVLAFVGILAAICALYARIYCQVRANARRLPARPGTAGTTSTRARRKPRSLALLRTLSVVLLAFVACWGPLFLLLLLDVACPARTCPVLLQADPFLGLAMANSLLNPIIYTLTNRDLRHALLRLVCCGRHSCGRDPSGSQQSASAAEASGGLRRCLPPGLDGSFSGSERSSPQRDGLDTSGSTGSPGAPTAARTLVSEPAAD
T2 sequence (P21453 whole entry): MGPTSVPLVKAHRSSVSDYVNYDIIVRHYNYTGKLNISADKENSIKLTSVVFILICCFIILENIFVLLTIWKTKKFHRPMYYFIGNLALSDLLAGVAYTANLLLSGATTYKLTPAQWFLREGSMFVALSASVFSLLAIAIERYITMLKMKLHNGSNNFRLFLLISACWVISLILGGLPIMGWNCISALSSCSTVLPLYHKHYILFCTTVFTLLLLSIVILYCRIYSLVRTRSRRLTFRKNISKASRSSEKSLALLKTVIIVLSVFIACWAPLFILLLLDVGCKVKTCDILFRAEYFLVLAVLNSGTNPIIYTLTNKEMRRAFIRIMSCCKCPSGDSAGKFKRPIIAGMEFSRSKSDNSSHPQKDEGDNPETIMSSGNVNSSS

| Structure (SMILES) | efficacy at S1P5 (human S1P5 receptor) [%] | EC50 (human S1P5 receptor) [nM] | efficacy at S1P1 (human S1P1 receptor) [%] | efficacy at S1P4 (human S1P4 receptor) [%] | EC50 (human S1P4 receptor; read-out: EC50 for receptor subtype S1P4) [nM] |
| --- | --- | --- | --- | --- | --- |
| CCc1cc(F)cc(CC)c1Nc1cccc2c(C)n[nH]c(=O)c12 [Example 8, 8-(2,6-Diethyl-4-fluoro-phenylamino)-4-methyl-2H-phthalazin-1-one] | 81 | 27 | 73 | – | – |
| Cc1cc(F)cc(C)c1Nc1cccc2c(C)n[nH]c(=O)c12 [Example 4, 8-(4-Fluoro-2,6-dimethyl-phenylamino)-4-methyl-2H-phthalazin-1-one] | 80 | 117 | 58 | 74 | 929 |
